According to ChEMBL document CHEMBL4813953, “Kinetics-Driven Drug Design Strategy for Next-Generation Acetylcholinesterase Inhibitors to Clinical Candidate” (J Med Chem, 2021):
Calls of active or inactive are those of the source. The rule behind the calls is not given here.

Assays:
Acetylcholinesterase [1] = target: Acetylcholinesterase (Homo sapiens, UniProt P22303); experiment: Binding affinity to CM5 sensor chip immobilized recombinant human AChE assessed as dissociation constant at 298.15 K by surface plasmon resonance assay
Chain of Acetylcholinesterase (Homo sapiens, UniProt P22303) (P22303 whole entry): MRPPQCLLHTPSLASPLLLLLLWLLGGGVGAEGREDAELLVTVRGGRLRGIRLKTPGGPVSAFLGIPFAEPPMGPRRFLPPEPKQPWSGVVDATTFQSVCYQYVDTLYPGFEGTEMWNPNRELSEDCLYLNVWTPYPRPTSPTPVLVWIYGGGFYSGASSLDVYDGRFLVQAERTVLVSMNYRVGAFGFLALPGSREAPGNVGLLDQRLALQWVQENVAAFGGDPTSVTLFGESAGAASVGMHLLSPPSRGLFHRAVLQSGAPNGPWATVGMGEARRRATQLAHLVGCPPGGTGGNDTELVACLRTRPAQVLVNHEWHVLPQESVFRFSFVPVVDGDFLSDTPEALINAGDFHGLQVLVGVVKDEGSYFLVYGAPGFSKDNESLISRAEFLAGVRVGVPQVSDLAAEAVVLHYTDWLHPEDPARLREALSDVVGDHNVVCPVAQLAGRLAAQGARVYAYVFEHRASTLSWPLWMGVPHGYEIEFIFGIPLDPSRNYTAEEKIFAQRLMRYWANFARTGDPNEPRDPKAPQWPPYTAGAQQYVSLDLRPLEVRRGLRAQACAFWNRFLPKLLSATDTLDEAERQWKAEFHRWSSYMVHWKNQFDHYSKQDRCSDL

Acetylcholinesterase [2] = target: T1, Acetylcholinesterase (Rattus norvegicus, UniProt P37136); experiment: Inhibition of rat cortex homogenate acetylcholinesterase using acetylthiocholine iodide as substrate incubated for 20 mins by Ellman's method; assay type: tissue-based
T1 sequence (P37136 whole entry): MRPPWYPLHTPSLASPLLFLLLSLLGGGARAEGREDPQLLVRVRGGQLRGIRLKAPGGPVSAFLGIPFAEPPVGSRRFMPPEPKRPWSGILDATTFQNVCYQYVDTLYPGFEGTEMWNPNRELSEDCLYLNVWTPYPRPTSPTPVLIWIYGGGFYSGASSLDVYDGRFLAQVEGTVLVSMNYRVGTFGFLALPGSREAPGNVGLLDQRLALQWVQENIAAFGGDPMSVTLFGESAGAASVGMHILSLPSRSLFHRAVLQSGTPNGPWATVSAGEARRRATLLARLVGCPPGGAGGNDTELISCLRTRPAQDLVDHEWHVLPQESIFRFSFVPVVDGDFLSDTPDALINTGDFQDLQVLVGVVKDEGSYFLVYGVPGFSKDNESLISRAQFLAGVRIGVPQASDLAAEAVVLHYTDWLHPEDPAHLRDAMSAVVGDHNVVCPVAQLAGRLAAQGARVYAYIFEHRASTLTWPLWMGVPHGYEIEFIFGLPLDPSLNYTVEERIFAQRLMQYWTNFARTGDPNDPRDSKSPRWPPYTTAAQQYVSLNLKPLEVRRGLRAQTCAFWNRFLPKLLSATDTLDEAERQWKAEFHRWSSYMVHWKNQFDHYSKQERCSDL

Mus musculus [3] = experiment: Cognitive enhancing effect in mouse model of scopolamine-induced memory impairment assessed as reduction in number of errors at 8 to 12 mg/kg, IG QD for 3 days by channel water maze test; assay type: functional, organism-based; conditions: dose 8-12 mg/kg, time 3.0 day
Mus musculus [4] = experiment: Cognitive enhancing effect in mouse model of scopolamine-induced memory impairment assessed as reduction in escape latency time at 8 to 12 mg/kg, IG QD for 3 days by channel water maze test; assay type: functional, organism-based; conditions: dose 8-12 mg/kg, time 3.0 day
[5] = target: T2, Acetylcholinesterase (Rattus norvegicus) (UniProt P37136); experiment: Inhibition of rat cortex homogenate acetylcholinesterase at 40 uM using acetylthiocholine iodide as substrate incubated for 20 mins by Ellman's method relative to control; assay type: tissue-based
T2 sequence (whole entry): T1 sequence (P37136 whole entry)

[6] = Solubility of the compound; assay type: physicochemical

Structure (SMILES) | IC50 (Acetylcholinesterase [2]) [µM] | further results
C/C=C1\[C@H]2C=C(C)C[C@]1(N)c1ccc(=O)[nH]c1C2 [HUPERZINE A] | – | Kd (Acetylcholinesterase [1]): 0.017 µM
CCCOc1cc2c(cc1OCCC)C(=O)C(CC1(F)CCN(Cc3ccccc3F)CC1)C2 (stereo not given) | 0.0667 | –
COc1ccc2c(c1)CC(CC1(F)CCN(Cc3ccccc3F)CC1)C2=O (stereo not given) | 0.00629 | –
COc1cc2c(cc1OC)C(=O)C(CC1CCN(Cc3ccccc3)CC1)C2 (stereo not given) | – | Activity (Mus musculus [3]): Active; Activity (Mus musculus [4]): Active
CCCOc1cc2c(cc1OC)CC(CC1(F)CCN(Cc3ccccc3F)CC1)C2=O (stereo not given) | 0.0253 | –
COc1cc2c(cc1OC)C(=O)C(CC1(F)CCN(Cc3ccc(F)cc3)CC1)C2 (stereo not given) | – | Kd (Acetylcholinesterase [1]): 0.00278 µM
CCCOc1cc2c(cc1OC)CC(CC1(F)CCN(Cc3ccc(F)cc3)CC1)C2=O (stereo not given) | 0.0183 | –
COc1cc2c(cc1OC)C(=O)C(CC1(F)CCN(Cc3cc(F)c(F)cc3F)CC1)C2 (stereo not given) | – | Kd (Acetylcholinesterase [1]): 0.00523 µM
COc1ccc2c(c1)C(=O)C(CC1(F)CCN(Cc3ccccc3F)CC1)C2 (stereo not given) | 0.0605 | –
COc1cc2c(cc1OC)C(=O)C(CC1(F)CCN(Cc3ccc(C(F)(F)F)cc3)CC1)C2 (stereo not given) | – | inhibition [5]: 75.3%
COc1cc2c(cc1OCC1CC1)C(=O)C(CC1(F)CCN(Cc3ccc(F)cc3F)CC1)C2 (stereo not given) | 0.00459 | –
COc1cc2c(cc1F)C(=O)C(CC1(F)CCN(Cc3ccccc3F)CC1)C2 (stereo not given) | 0.00352 | –
COc1cc2c(cc1OC)C(=O)C(CC1(F)CCN(CCc3ccc(F)cc3)CC1)C2 (stereo not given) | 0.404 | –
COc1cc2c(cc1OC)C(=O)C(CC1(F)CCN(Cc3cc(F)cc(F)c3)CC1)C2 (stereo not given) | 0.226 | –
COc1cc2c(cc1OC)C(=O)C(CC1(F)CCN(Cc3ccc(OC(F)(F)F)cc3)CC1)C2 (stereo not given) | – | inhibition [5]: 51.7%
COc1cc2c(cc1OC)C(=O)C(CC1(F)CCN(Cc3ccc(C(C)(C)C)cc3)CC1)C2 (stereo not given) | – | inhibition [5]: 69.1%
COc1cc2c(cc1OC)C(=O)C(CC1(F)CCN(CCc3cccc(F)c3)CC1)C2 (stereo not given) | 0.059 | –
COc1cc2c(cc1F)CC(CC1(F)CCN(Cc3cccc(F)c3)CC1)C2=O (stereo not given) | 0.0449 | –
COc1cc2c(cc1OCC1CC1)C(=O)C(CC1(F)CCN(Cc3ccc(F)cc3)CC1)C2 (stereo not given) | 0.00539 | –
COc1cc2c(cc1F)CC(CC1(F)CCN(Cc3ccccc3F)CC1)C2=O (stereo not given) | 0.0225 | –
COc1cc2c(cc1F)C(=O)C(CC1(F)CCN(Cc3cccc(F)c3)CC1)C2 (stereo not given) | 0.00371 | –

Structure (SMILES) | IC50 (Acetylcholinesterase [2]) [µM] | further results
COc1cc2c(cc1OC)C(=O)C(CC1(F)CCN(Cc3ccc(F)cc3F)CC1)C2 (stereo not given) | 0.00833 | Kd (Acetylcholinesterase [1]): 0.00347 µM
COc1ccc2c(c1)CC(CC1(F)CCN(Cc3cccc(F)c3)CC1)C2=O (stereo not given) | 0.0141 | –
COc1cc2c(cc1OC)C(=O)C(CC1(F)CCN(Cc3cc(F)cc(F)c3F)CC1)C2 (stereo not given) | 0.306 | –
COc1cc2c(cc1OCC1CC1)C(=O)C(CC1(F)CCN(Cc3cccc(F)c3)CC1)C2 (stereo not given) | 0.00587 | –
COc1cc2c(cc1OC)C(=O)C(CC1(F)CCN(Cc3ccccc3C(F)(F)F)CC1)C2 (stereo not given) | 1.64 | –
CCCCOc1cc2c(cc1OCCCC)C(=O)C(CC1(F)CCN(Cc3cccc(F)c3)CC1)C2 (stereo not given) | 0.646 | –
COc1cc2c(cc1OC)C(=O)C(CC1(F)CCN(CCc3ccccc3F)CC1)C2 (stereo not given) | – | inhibition [5]: 74.7%
COc1cc2c(cc1F)C(=O)C(CC1(F)CCN(Cc3ccc(F)cc3)CC1)C2 (stereo not given) | 0.00344 | –
COc1cc2c(cc1OCC1CC1)C(=O)C(CC1(F)CCN(Cc3ccccc3F)CC1)C2 (stereo not given) | – | inhibition [5]: 8.4%
CCCCOc1cc2c(cc1OCCCC)C(=O)C(CC1(F)CCN(Cc3ccccc3F)CC1)C2 (stereo not given) | 0.181 | –
COc1cc2c(cc1OC)C(=O)C(CC1(F)CCN(Cc3ccccc3)CC1)C2 (stereo not given) | – | Kd (Acetylcholinesterase [1]): 0.00461 µM
COc1ccc2c(c1)C(=O)C(CC1(F)CCN(Cc3ccc(F)cc3)CC1)C2 (stereo not given) | 0.26 | –
CCCOc1cc2c(cc1OCCC)C(=O)C(CC1(F)CCN(Cc3cccc(F)c3)CC1)C2 (stereo not given) | 0.176 | –
COc1cc2c(cc1OC)C(=O)C(CC1(F)CCN(Cc3cccc(F)c3)CC1)C2 (stereo not given) | 0.003 | Kd (Acetylcholinesterase [1]): 0.00502 µM
COc1cc2c(cc1OC)C(=O)C(CC1(F)CCN(Cc3cccc(C)c3)CC1)C2 (stereo not given) | 0.0117 | –
COc1cc2c(cc1F)CC(CC1(F)CCN(Cc3ccc(F)cc3)CC1)C2=O (stereo not given) | 0.0283 | –
COc1cc2c(cc1OC)C(=O)C(CC1(F)CCN(Cc3cccc(C(F)(F)F)c3)CC1)C2 (stereo not given) | 0.348 | –
COc1cc2c(cc1OC)C(=O)C(CC1(F)CCN(Cc3cccc(C#N)c3)CC1)C2 (stereo not given) | 0.0673 | –
COc1cc2c(cc1OC)C(=O)C(CC1(F)CCN(Cc3c(F)c(F)c(F)c(F)c3F)CC1)C2 (stereo not given) | – | solubility [6]: Insoluble
COc1cc2c(cc1OC)C(=O)C(CC1(F)CCN(Cc3ccc(F)c(F)c3F)CC1)C2 (stereo not given) | 0.0757 | –
COc1cc2c(cc1OC)C(=O)C(CC1(F)CCN(Cc3ccccc3C#N)CC1)C2 (stereo not given) | 0.163 | –
